The record followed here is patent publication US8110586B2, “8-aza-bicyclo[3.2.1]octane derivatives and their use as monoamine neurotransmitter re-uptake inhibitors” (Neurosearch A/S, priority 2006, dated 2012).

As usually defined, the IC50 is the midpoint of a concentration-inhibition curve. For orientation: melting point means the temperature of the solid-liquid transition.

Counter-ions that a name gives are not always drawn.

Data set [1] concerns the target T1, reuptake of dopamine (DA) in synaptosomes (Rattus norvegicus, UniProt P23977).
T1 construct: in synaptosomes as described in WO 97/16451; from tissue
The data set can be described thus: Inhibition of dopamine reuptake in synaptosomes. The format is biochemical. Conditions: 3H-DA, read-out: DA-uptake IC50.

Data set [2] addresses T2, reuptake of serotonine (5-HT) in synaptosomes (Rattus norvegicus, UniProt P31652).
T2 construct: in synaptosomes as described in WO 97/16451; from tissue
The data set is described as follows: Inhibition of serotonin reuptake in synaptosomes. The data set is classed as biochemical. The protocol:
A number of compounds were tested for their ability to inhibit the reuptake of the monoamine neurotransmitters dopamine (DA) noradrenaline (NA) and serotonine (5-HT) in synaptosomes as described in WO 97/16451.
The test values are given as IC50 (the concentration (μM) of the test substance which inhibits the specific binding of ^3H-DA, ^3H-NA, or ^3H-5-HT by 50%).

T1 sequence (P23977 whole entry): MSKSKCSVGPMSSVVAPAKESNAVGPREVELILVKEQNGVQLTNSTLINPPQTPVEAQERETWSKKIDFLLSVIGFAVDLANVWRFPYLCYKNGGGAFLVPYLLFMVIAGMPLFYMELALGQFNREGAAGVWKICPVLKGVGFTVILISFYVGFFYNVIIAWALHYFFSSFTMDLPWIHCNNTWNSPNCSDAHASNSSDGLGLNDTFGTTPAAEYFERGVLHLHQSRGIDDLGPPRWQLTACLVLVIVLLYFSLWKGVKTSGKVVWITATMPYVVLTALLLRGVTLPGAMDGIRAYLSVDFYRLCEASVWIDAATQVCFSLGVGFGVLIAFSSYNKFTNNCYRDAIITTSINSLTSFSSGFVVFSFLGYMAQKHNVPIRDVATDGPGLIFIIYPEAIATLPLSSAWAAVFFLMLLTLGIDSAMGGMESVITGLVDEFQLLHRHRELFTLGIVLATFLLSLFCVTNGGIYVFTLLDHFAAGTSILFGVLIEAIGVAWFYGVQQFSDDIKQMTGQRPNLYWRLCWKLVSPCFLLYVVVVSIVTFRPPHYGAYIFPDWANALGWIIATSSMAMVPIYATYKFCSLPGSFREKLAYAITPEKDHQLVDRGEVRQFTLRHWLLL
T2 sequence (P31652 whole entry): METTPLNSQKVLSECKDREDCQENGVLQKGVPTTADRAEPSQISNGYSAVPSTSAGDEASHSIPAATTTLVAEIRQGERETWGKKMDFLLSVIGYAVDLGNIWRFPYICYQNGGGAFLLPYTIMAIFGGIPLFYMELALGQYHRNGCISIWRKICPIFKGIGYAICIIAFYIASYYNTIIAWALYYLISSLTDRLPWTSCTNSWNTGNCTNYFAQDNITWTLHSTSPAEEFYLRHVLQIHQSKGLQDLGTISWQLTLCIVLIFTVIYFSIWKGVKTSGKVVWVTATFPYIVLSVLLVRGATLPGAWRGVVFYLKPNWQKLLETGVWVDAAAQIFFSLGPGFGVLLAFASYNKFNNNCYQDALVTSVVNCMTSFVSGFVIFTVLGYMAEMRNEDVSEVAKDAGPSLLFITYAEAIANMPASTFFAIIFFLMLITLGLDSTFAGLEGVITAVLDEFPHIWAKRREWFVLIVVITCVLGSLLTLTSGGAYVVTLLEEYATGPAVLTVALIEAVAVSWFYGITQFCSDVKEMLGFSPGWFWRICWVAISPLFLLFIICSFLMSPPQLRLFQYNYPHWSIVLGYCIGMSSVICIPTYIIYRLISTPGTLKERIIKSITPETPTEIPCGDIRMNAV

`COc1ccc2cc(OC3CC4CCC(C3)N4)ccc2c1` (stereo not drawn) [First compound of Example A, exo-3-(6-Methoxy-naphthalen-2-yloxy)-8-aza-bicyclo[3.2.1]octane]: the values for the IC50 in data set [1] and in data set [2] were 420 nM and 26 nM, respectively.
On to `COc1ccc2ccc(OC3CC4CCC(C3)N4)cc2c1` (stereo not drawn) [Last compound of Example A, exo-3-(7-Methoxy-naphthalen-2-yloxy)-8-aza-bicyclo[3.2.1]octane], for which the figures for the IC50 in data set [1] and in data set [2] were 1400 nM and 0.42 nM, respectively.
As to `COc1ccc2ccc(OC3CC4CCC(C3)N4)cc2c1` (stereo not drawn) (as salt: hydrochloric acid salt) [Last compound of Example A, exo-3-(7-Methoxy-naphthalen-2-yloxy)-8-aza-bicyclo[3.2.1]octane], the melting point was 225 °C.
The molecule `COc1ccc2cc(OC3CC4CCC(C3)N4)ccc2c1` (stereo not drawn) (as salt: hydrochloric acid salt) [First compound of Example A, exo-3-(6-Methoxy-naphthalen-2-yloxy)-8-aza-bicyclo[3.2.1]octane] yielded a melting point of 237 to 239 °C.
